Assay results: patent US8247424B2, “Fredericamycin derivatives” (Zentopharm GmbH, priority 2002, dated 2012)
Converted amounts (≈) assume the structure as drawn.

Assay: Biological activity against 12 cancer cell lines, efficacy (IC70) averaged over all cell lines;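 also: panel also covers renal lines RXF 944L and RXF 486L, uterine UXF 1138L, and prostate lines PRXF PC3M and PRXF 22RV1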
Assay type: cell-based
Details: averaged over all 12 cancer cell lines, 5 test concentrations
Method: LCL (H460, lung), MACL (MCF7, breast), LXFL (52L, lung), LXFA (629L, lung), MEXF (462NL, melanoma), MEXF (514L, melanoma), MAXF (401NL, breast), RXF (944L, renal), RXF (486L, renal), UXF (1138L, uterus), PRXF (PC3M, prostate), PRXF (22RV1).

| Structure (SMILES) | IC70 |
| --- | --- |
| C/C=C/C=C/c1cc2c(F)c3c(c(O)c2c(=O)[nH]1)[C@@]1(CC3)C(=O)c2c(O)c3c(c(O)c2C1=O)C(=O)C(OC)=CC3=O [Example 23, (8S)-5-fluoro-4′,9,9′-trihydroxy-6′-methoxy-3-[(1E,3E)-penta-1,3-dienyl]-6,7-dihydrospiro[cyclopenta[g]isoquinoline-8,2′-cyclopenta[b]-naphthalene]-1,1′,3′,5′,8′(2H)-pentone] | 0.011 mg/L (≈ 0.0197 µM) |
| COC1=CC(=O)c2c(O)c3c(c(O)c2C1=O)C(=O)C1(CCc2cc4cc(C=NOCc5ccccc5)[nH]c(=O)c4c(O)c21)C3=O (centres unmarked) [Example 121, 4′,9,9′-Trihydroxy-6′-methoxy-1,1′,3′,5′,8′-pentaoxo-1,1′,2,3′,5′,6,7,8′-octahydrospiro[cyclopenta[g]isoquinoline-8,2′-cyclopenta[b]-naphthalene]-3-carbaldehyde O-benzyloxime] | 0.202 mg/L (≈ 0.333 µM) |
| COC1=CC(=O)c2c(O)c3c(c(O)c2C1=O)C(=O)C1(CCc2cc4cc(C=NOCc5cccc(Cl)c5)[nH]c(=O)c4c(O)c21)C3=O (centres unmarked) [Example 127, 4′,9,9′-Trihydroxy-6′-methoxy-1,1′,3′,5′,8′-pentaoxo-1,1′,2,3′,5′,6,7,8′-octahydrospiro[cyclopenta[g]isoquinoline-8,2′-cyclopenta[b]-naphthalene]-3-carbaldehyde O-(3-chlorobenzyl)oxime] | 0.155 mg/L (≈ 0.242 µM) |
| COC1=CC(=O)c2c(O)c3c(c(O)c2C1=O)C(=O)[C@]1(CCc2c1c(O)c1c(=O)[nH]c(C=NOCCN4CCOCC4)cc1c2Br)C3=O [Example 192, (8S)-5-bromo-4′,9,9′-trihydroxy-6′-methoxy-1,1′,3′,5′,8′-pentaoxo-1,1′,2,3′,5′,6,7,8′-octahydrospiro[cyclopenta[g]isoquinoline-8,2′-cyclopenta[b]-naphthalene]-3-carbaldehyde O-[2-morpholine-4-yl-ethyl)oxime] | 0.075 mg/L (≈ 0.106 µM) |
| CON=Cc1cc2c(Br)c3c(c(O)c2c(=O)[nH]1)[C@@]1(CC3)C(=O)c2c(O)c3c(c(O)c2C1=O)C(=O)C(OC)=CC3=O [Example 196, (8S)-5-bromo-4′,9,9′-trihydroxy-6′-methoxy-1,1′,3′,5′,8′-pentaoxo-1,1′,2,3′,5′,6,7,8′-octahydrospiro[cyclopenta[g]isoquinoline-8,2′-cyclopenta[b]-naphthalene]-3-carbaldehyde O-methyloxime] | 0.095 mg/L (≈ 0.156 µM) |
| COC1=CC(=O)c2c(O)c3c(c(O)c2C1=O)C(=O)[C@]1(CCc2c1c(O)c1c(=O)[nH]c(C=NOCc4ccccc4)cc1c2Br)C3=O [Example 197, (8S)-5-bromo-4′,9,9′-trihydroxy-6′-methoxy-1,1′,3′,5′,8′-pentaoxo-1,1′,2,3′,5′,6,7,8′-octahydrospiro[cyclopenta[g]isoquinoline-8,2′-cyclopenta[b]-naphthalene]-3-carbaldehyde-O-benzyloxime] | 0.034 mg/L (≈ 0.0496 µM) |
| COC1=CC(=O)c2c(O)c3c(c(O)c2C1=O)C(=O)[C@]1(CCc2c1c(O)c1c(=O)[nH]c(C=NO)cc1c2Br)C3=O [Example 198, (8S)-5-bromo-4′,9,9′-trihydroxy-6′-methoxy-1,1′,3′,5′,8′-pentaoxo-1,1′,2,3′,5′,6,7,8′-octahydrospiro[cyclopenta[g]isoquinoline-8,2′-cyclopenta[b]-naphthalene]-3-carbaldehyde oxime] | 0.256 mg/L (≈ 0.43 µM) |
| COC1=CC(=O)c2c(O)c3c(c(O)c2C1=O)C(=O)[C@]1(CCc2c1c(O)c1c(=O)[nH]c(C=NOCc4cccc(Cl)c4)cc1c2Br)C3=O [Example 203, (8S)-5-bromo-4′,9,9′-trihydroxy-6′-methoxy-1,1′,3′,5′,8′-pentaoxo-1,1′,2,3′,5′,6,7,8′-octahydrospiro[cyclopenta[g]isoquinoline-8,2′-cyclopenta[b]-naphthalene]-3-carbaldehyde O-(3-chlorobenzyl)oxime] | 0.159 mg/L (≈ 0.221 µM) |
| COC1=CC(=O)c2c(O)c3c(c(O)c2C1=O)C(=O)[C@]1(CCc2c1c(O)c1c(=O)[nH]c(C=NOCCCN4CCN(c5cccc(Cl)c5)CC4)cc1c2Br)C3=O [Example 212, (8S)-5-bromo-4′,9,9′-trihydroxy-6′-methoxy-1,1′,3′,5′,8′-pentaoxo-1,1′,2,3′,5′,6,7,8′-octahydrospiro[cyclopenta[g]isoquinoline-8,2′-cyclopenta[b]-naphthalene]-3-carbaldehyde O-[3-(4-(3-chlorophenyl)-piperazine-1-yl)propyl]oxime] | 0.21 mg/L (≈ 0.252 µM) |
| COC1=CC(=O)c2c(O)c3c(c(O)c2C1=O)C(=O)[C@]1(CCc2cc4cc(C=NOC(C)C)[nH]c(=O)c4c(O)c21)C3=O [Example 214, (8S)-4′,9,9′-trihydroxy-6′-methoxy-1,1′,3′,5′,8′-pentaoxo-1,1′,2,3′,5′,6,7,8′-octahydrospiro[cyclopenta[g]isoquinoline-8,2′-cyclopenta[b]-naphthalene]-3-carbaldehyde O-isopropyloxime] | 0.022 mg/L (≈ 0.0394 µM) |
| CCCCCCON=Cc1cc2cc3c(c(O)c2c(=O)[nH]1)[C@@]1(CC3)C(=O)c2c(O)c3c(c(O)c2C1=O)C(=O)C(OC)=CC3=O [Example 215, (8S)-4′,9,9′-trihydroxy-6′-methoxy-1,1′,3′,5′,8′-pentaoxo-1,1′,2,3′,5′,6,7,8′-octahydrospiro[cyclopenta[g]isoquinoline-8,2′-cyclopenta[b]-naphthalene]-3-carbaldehyde O-n-hexyloxime] | 0.072 mg/L (≈ 0.12 µM) |
| COC1=CC(=O)c2c(O)c3c(c(O)c2C1=O)C(=O)[C@]1(CCc2cc4cc(C=NOCc5ccc(Cl)cc5)[nH]c(=O)c4c(O)c21)C3=O [Example 217, (8S)-4′,9,9′-trihydroxy-6′-methoxy-1,1′,3′,5′,8′-pentaoxo-1,1′,2,3′,5′,6,7,8′-octahydrospiro[cyclopenta[g]isoquinoline-8,2′-cyclopenta[b]-naphthalene]-3-carbaldehyde O-(4-chlorobenzyl)oxime] | 0.129 mg/L (≈ 0.201 µM) |
| COC1=CC(=O)c2c(O)c3c(c(O)c2C1=O)C(=O)[C@]1(CCc2cc4cc(C=NOCc5cccc(F)c5)[nH]c(=O)c4c(O)c21)C3=O [Example 218, (8S)-4′,9,9′-trihydroxy-6′-methoxy-1,1′,3′,5′,8′-pentaoxo-1,1′,2,3′,5′,6,7,8′-octahydrospiro[cyclopenta[g]isoquinoline-8,2′-cyclopenta[b]-naphthalene]-3-carbaldehyde O-(3-fluorobenzyl)oxime] | 0.076 mg/L (≈ 0.122 µM) |
| COC1=CC(=O)c2c(O)c3c(c(O)c2C1=O)C(=O)[C@]1(CCc2c1c(O)c1c(=O)[nH]c(C=NOC(C)C)cc1c2Br)C3=O [Example 224, (8S)-5-bromo-4′,9,9′-trihydroxy-6′-methoxy-1,1′,3′,5′,8′-pentaoxo-1,1′,2,3′,5′,6,7,8′-octahydrospiro[cyclopenta[g]isoquinoline-8,2′-cyclopenta[b]-naphthalene]-3-carbaldehyde O-isopropyloxime] | 0.047 mg/L (≈ 0.0737 µM) |
| CCCCCCON=Cc1cc2c(Br)c3c(c(O)c2c(=O)[nH]1)[C@@]1(CC3)C(=O)c2c(O)c3c(c(O)c2C1=O)C(=O)C(OC)=CC3=O [Example 225, (8S)-5-bromo-4′,9,9′-trihydroxy-6′-methoxy-1,1′,3′,5′,8′-pentaoxo-1,1′,2,3′,5′,6,7,8′-octahydrospiro[cyclopenta[g]isoquinoline-8,2′-cyclopenta[b]-naphthalene]-3-carbaldehyde O-n-hexyloxime] | 0.111 mg/L (≈ 0.163 µM) |
| CCCCCCON=Cc1cc2c(I)c3c(c(O)c2c(=O)[nH]1)[C@@]1(CC3)C(=O)c2c(O)c3c(c(O)c2C1=O)C(=O)C(OC)=CC3=O [Example 230, (8S)-5-iodo-4′,9,9′-trihydroxy-6′-methoxy-1,1′,3′,5′,8′-pentaoxo-1,1′,2,3′,5′,6,7,8′-octahydrospiro[cyclopenta[g]isoquinoline-8,2′-cyclopenta[b]-naphthalene]-3-carbaldehyde O-n-hexyloxime] | 0.091 mg/L (≈ 0.125 µM) |
| COC1=CC(=O)c2c(O)c3c(c(O)c2C1=O)C(=O)[C@]1(CCc2c1c(O)c1c(=O)[nH]c(C=NOCc4ccc(Cl)cc4)cc1c2I)C3=O [Example 232, (8S)-5-iodo-4′,9,9′-trihydroxy-6′-methoxy-1,1′,3′,5′,8′-pentaoxo-1,1′,2,3′,5′,6,7,8′-octahydrospiro[cyclopenta[g]isoquinoline-8,2′-cyclopenta[b]-naphthalene]-3-carbaldehyde O-(4-chlorobenzyl)oxime] | 0.317 mg/L (≈ 0.413 µM) |
| COC1=CC(=O)c2c(O)c3c(c(O)c2C1=O)C(=O)[C@]1(CCc2c1c(O)c1c(=O)[nH]c(C=NOCc4cccc(F)c4)cc1c2I)C3=O [Example 233, (8S)-5-iodo-4′,9,9′-trihydroxy-6′-methoxy-1,1′,3′,5′,8′-pentaoxo-1,1′,2,3′,5′,6,7,8′-octahydrospiro[cyclopenta[g]isoquinoline-8,2′-cyclopenta[b]-naphthalene]-3-carbaldehyde O-(3-fluorobenzyl)oxime] | 0.1 mg/L (≈ 0.133 µM) |
| COC1=CC(=O)c2c(O)c3c(c(O)c2C1=O)C(=O)[C@]1(CCc2c1c(O)c1c(=O)[nH]c(C=NOCc4ccccc4)cc1c2I)C3=O [Example 234, (8S)-5-iodo-4′,9,9′-trihydroxy-6′-methoxy-1,1′,3′,5′,8′-pentaoxo-1,1′,2,3′,5′,6,7,8′-octahydrospiro[cyclopenta[g]isoquinoline-8,2′-cyclopenta[b]-naphthalene]-3-carbaldehyde O-benzyloxime] | 0.052 mg/L (≈ 0.071 µM) |
| COC1=CC(=O)c2c(O)c3c(c(O)c2C1=O)C(=O)[C@]1(CCc2c1c(O)c1c(=O)[nH]c(C=NOCCN4CCOCC4)cc1c2I)C3=O [Example 235, (8S)-5-iodo-4′,9,9′-trihydroxy-6′-methoxy-1,1′,3′,5′,8′-pentaoxo-1,1′,2,3′,5′,6,7,8′-octahydrospiro[cyclopenta[g]isoquinoline-8,2′-cyclopenta[b]-naphthalene]-3-carbaldehyde O-[2-morpholine-4-yl-ethyl)oxime] | 0.081 mg/L (≈ 0.107 µM) |
| CON=Cc1cc2c(I)c3c(c(O)c2c(=O)[nH]1)[C@@]1(CC3)C(=O)c2c(O)c3c(c(O)c2C1=O)C(=O)C(OC)=CC3=O [Example 236, (8S)-5-iodo-4′,9,9′-trihydroxy-6′-methoxy-1,1′,3′,5′,8′-pentaoxo-1,1′,2,3′,5′,6,7,8′-octahydrospiro[cyclopenta[g]isoquinoline-8,2′-cyclopenta[b]-naphthalene]-3-carbaldehyde O-methyloxime] | 0.121 mg/L (≈ 0.184 µM) |
| COc1cccc2c1C(=O)c1c(O)c3c(c(O)c1C2=O)C[C@@](O)(C(=O)CO)C[C@@H]3O[C@H]1C[C@H](N)[C@H](O)[C@H](C)O1 [adriamycin] | 0.021 mg/L (≈ 0.0386 µM) |
| C/C=C/C=C/c1cc2cc3c(c(O)c2c(=O)[nH]1)C1(CC3)C(=O)c2c(O)c3c(c(O)c2C1=O)C(=O)C(OC)=CC3=O (centres unmarked) [fredericamycin, fredericamycin A] | 0.279 mg/L (≈ 0.517 µM) |
